The target of data set [1] is T1, human lysosomal β-galactosidase (β-Gal) (Homo sapiens, UniProt P16278).
T1 construct: in leukocytes isolated from healthy donors (controls); endogenous in cells; host or cells: human leukocytes from healthy donors, disrupted by sonication (crude homogenate)
T1 sequence (P16278 29-677): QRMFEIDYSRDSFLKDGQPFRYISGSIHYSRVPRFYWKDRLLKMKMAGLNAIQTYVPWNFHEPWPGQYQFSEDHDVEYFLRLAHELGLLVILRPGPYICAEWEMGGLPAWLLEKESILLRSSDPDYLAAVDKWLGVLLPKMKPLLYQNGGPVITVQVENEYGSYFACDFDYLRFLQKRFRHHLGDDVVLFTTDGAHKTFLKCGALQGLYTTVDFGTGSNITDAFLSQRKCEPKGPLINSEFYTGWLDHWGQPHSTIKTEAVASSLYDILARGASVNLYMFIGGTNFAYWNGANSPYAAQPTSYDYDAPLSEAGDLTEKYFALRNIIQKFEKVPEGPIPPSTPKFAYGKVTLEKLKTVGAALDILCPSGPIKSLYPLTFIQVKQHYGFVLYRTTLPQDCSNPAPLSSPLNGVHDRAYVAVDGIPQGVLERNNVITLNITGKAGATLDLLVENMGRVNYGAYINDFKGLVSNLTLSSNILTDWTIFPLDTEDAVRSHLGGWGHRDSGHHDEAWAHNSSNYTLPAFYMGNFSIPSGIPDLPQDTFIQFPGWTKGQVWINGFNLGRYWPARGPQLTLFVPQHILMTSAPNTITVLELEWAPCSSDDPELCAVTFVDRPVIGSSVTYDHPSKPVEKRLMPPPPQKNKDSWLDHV
Set-up: method as in PMID 32200326. To be noted: compounds 1 mM; human leukocytes extracts; cited from earlier work.

Data set [2] has as its target T2, human lysosomal β-glucosidase (GCase) (Homo sapiens, UniProt P04062).
T2 construct: in leukocytes isolated from healthy donors (controls); endogenous in cells; host or cells: human leukocytes from healthy donors, disrupted by sonication (crude homogenate)
T2 sequence (P04062 40-536): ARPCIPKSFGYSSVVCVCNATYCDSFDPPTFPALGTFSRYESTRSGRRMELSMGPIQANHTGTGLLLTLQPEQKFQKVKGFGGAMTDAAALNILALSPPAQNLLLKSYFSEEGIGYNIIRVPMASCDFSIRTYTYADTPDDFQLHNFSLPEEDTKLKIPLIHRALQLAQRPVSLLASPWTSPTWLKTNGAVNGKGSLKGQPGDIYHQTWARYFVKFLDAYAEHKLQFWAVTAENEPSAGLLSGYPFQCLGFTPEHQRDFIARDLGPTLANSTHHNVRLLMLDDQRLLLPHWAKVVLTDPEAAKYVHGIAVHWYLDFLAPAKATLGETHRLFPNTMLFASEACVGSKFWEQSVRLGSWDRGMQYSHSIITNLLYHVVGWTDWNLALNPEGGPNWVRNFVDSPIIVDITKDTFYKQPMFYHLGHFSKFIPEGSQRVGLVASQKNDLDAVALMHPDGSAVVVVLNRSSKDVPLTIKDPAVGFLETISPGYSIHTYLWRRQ
To be noted: human leukocytes extracts, cited from earlier work; for GCase Inhibition (%): compounds 1 mM.

In data set [3] the test system is human lysosomal β-Gal. To be noted: cited from earlier work.
Data set [4] has as its system mutant β-Gal in GM1-gangliosidosis patient fibroblasts. To be noted: cited from earlier work.
Data set [5] addresses T1, human lysosomal β-galactosidase (β-Gal). The experiment in a line: β-Gal inhibition in human leukocyte homogenates. To be noted: compounds 1 mM; human leukocytes extracts. The format is biochemical. The protocol:
(§1) The new compounds were screened at 1 mM concentration towards β-galactosidase (β-Gal) and β-glucosidase (GCase) in leukocytes isolated from healthy donors (controls). Isolated leukocytes were disrupted by sonication, and a Micro BCA Protein Assay Kit (Sigma–Aldrich, St. Louis, MO, USA) was used to determine the total protein amount for the enzymatic assay, according to the manufacturer’s instructions.
β-Gal activity was measured in a flat-bottomed 96-well plate. Azasugar solution (3 μL), 4.29 μg/μL leukocytes homogenate 1:10 (7 μL), and substrate 4-methylumbelliferyl β-D-galactopyranoside (1.47 mM, 20 μL, Sigma–Aldrich) in acetate buffer (0.1 M, pH 4.3) containing NaCl (0.1 M) and sodium azide (0.02%) were incubated at 37 °C for 1 h. The reaction was stopped by addition of sodium carbonate (200 μL; 0.5 M, pH 10.7) containing Triton X-100 (0.0025%), and the fluorescence 4-methylumbelliferone released by β-galactosidase activity was measured in SpectraMax M2 Microplate Reader (λex = 365 nm and λem = 435 nm; Molecular Devices LLC, San Jose, CA, US). Inhibition is given with respect to the control (without azasugar). Data are mean SD (n = 3).

Data set [6] addresses T2, human lysosomal β-glucosidase (GCase). The experiment in a line: GCase inhibition in human leukocyte homogenates. The format is biochemical. To be noted: compounds 1 mM; human leukocytes extracts. The protocol:
as §1
GCase activity was measured in a flat-bottomed 96-well plate. Compound solution (3 µL), 4.29 µg/µL leukocytes homogenate (7 µL), and substrate 4-methylumbelliferyl-β-D-glucoside (3.33 mM, 20 µL, Sigma–Aldrich Chemie Gmbh, Munich, Germany)) in citrate/phosphate buffer (0.1:0.2, M/M, pH 5.8) containing sodium taurocholate (0.3%) and Triton X-100 (0.15%) at 37 °C were incubated for 1 h. The reaction was stopped by addition of sodium carbonate (200 µL; 0.5 M, pH 10.7) containing Triton X-100 (0.0025%), and the fluorescence of 4-methylumbelliferone released by β-glucosidase activity was measured in SpectraMax M2 Microplate Reader (λex = 365 nm and λem = 435 nm; Molecular Devices LLC, San Jose, CA, US). Percentage GCase inhibition is given with respect to the control (without compound). Data are mean SD (n = 3). For compounds showing GCase inhibitory activity higher than 80% at 1 mM concentration, the IC50 values were determined by measuring the initial hydrolysis rate with 4-methylumbelliferyl-β-D-glucoside (3.33 mM). Data obtained were fitted by using the appropriate equation (for more details, see the Supplementary Materials).
IC50 for compounds 9, 10, 12 and 21 towards human lysosomal β-glucosidase The IC50 values of inhibitors against β-glucosidase were determined by measuring the initial hydrolysis rate with 4-methylumbelliferyl-β-D-glucoside (3.33 mM). Data obtained were fitted to the following equation using the Origin Microcal program. where Vi/Vo, represent the ratio between the activity measured in the presence of the inhibitor (Vi) and the activity of the control without the inhibitor (V0), “x” the inhibitor concentration, Max and Min, the maximal and minimal enzymatic activity observed, respectively.
Figure S48: IC of compound 9 towards GCase
Figure S49: IC50 of compound 10 towards GCase
(also on this page, place not known: Min x MinMax Vo Vi slope + […] […] […] […] […] […]+ −= 1 be tween (V i) (V 0), IC50) […]

The target of data set [7] is T3, GCase in fibroblasts with the N370S/RecNcil mutation (Homo sapiens, UniProt P04062, N409S).
T3 construct: Fibroblasts with the N370S/RecNcil mutation from patients with Gaucher disease; host or cells: human Gaucher patient fibroblasts, N370S/RecNciI
T3 sequence (P04062 40-536 N409S): T2 sequence (P04062 40-536) with N370S
Set-up: method as in PMID 26376302. To be noted: at 100 µM; cited from earlier work.

Here are results for 16 compounds from paper PMC7582770, “Synthesis of “All-Cis” Trihydroxypiperidines from a Carbohydrate-Derived Ketone: Hints for the Design of New β-Gal and GCase Inhibitors” (Molecules, 2020).

Structures are written as SMILES. Where a chain is given by its changes, count along the chain named. Read-outs that look alike come from different tables or passages of the source. Marks after values point to notes of the source that are not given here.

With `CCCCCCCC[C@@H]1NC[C@@H](O)[C@@H](O)[C@@H]1O` [compound 39], the “β-Gal Inhibition (%)” value in data set [1] is listed as 31 ^d %. For the same compound, in data set [2], the “GCase Inhibition (%)” value was 80 ^d % and the IC50 (commonly the concentration that inhibits the measured activity by half) is 94000 ± 5000 nM.

With `CCCCC[C@H]1NC[C@@H](O)[C@@H](O)[C@H]1CO` [compound 4], in data set [3], the IC50 is 10 nM. In data set [4], the “rescue of mutant β-Gal activity in fibroblasts from GM1-gangliosidosis patients” value is listed as “able to rescue mutant β-Gal activity”.

Take `O[C@@H]1CNC[C@@](O)(CCc2ccsc2)[C@@H]1O` [compound 14, (3S, 4R, 5R)-3,4,5-Trihydroxy-3-((2-(3-Thienyl) Ethyl))-Piperidine]: the melting point (as a rule, the temperature, or range, at which the solid turns liquid) was in the range of 73 to 75 °C. For the same compound, in data set [5], the inhibition (as a rule, how much of the control response was suppressed) at 1000 µM is 16%. Further, testing at 1000 µM in data set [6] gave an inhibition of 9%.

As to `CCCCCCC#C[C@]1(O)CNC[C@@H](O)[C@H]1O` [compound 33, (3S, 4R, 5R)-3,4,5-Trihydroxy-3-(oct-1-yn-1-yl)-Piperidine], the figures for the inhibition at 1000 µM in data set [5] and in data set [6] were 4% and 65%, respectively.

With `CCCCCCCC[C@@H](O)C[C@@H]1NC[C@@H](O)[C@@H](O)[C@H]1O` [compound 7], in data set [4], the “increase of β-Gal activity in GM1 gangliosidosis patient fibroblasts” value was 2–6 fold.

For the compound `O[C@@H]1CNC[C@@](O)(CCc2ccccc2)[C@@H]1O` [compound 11, (3S, 4R, 5R)-3,4,5-Trihydroxy-3-(2-Phenylethyl)-Piperidine], the inhibition at 1000 µM in data set [5] was 0%; in data set [6], 36%.

`CN(C)c1ccc(CC[C@]2(O)CNC[C@@H](O)[C@H]2O)cc1` [compound 15]: the inhibition at 1000 µM in data set [5] and in data set [6] was 6% in each case.

For `CCCCCCCCN[C@H]1CNC[C@@H](O)[C@H]1O` [compound 36], the inhibition at 1000 µM in data set [5] came out at 15%. Further, in data set [2], the “GCase Inhibition (%)” value is given as 93 ^c % and the half-maximal inhibitory concentration (IC50) was 40000 ± 3000 nM. In data set [7], the “rescue of GCase activity” value is given as 1.5 fold.

For the compound `CCCCCCCC[C@H]1NC[C@@H](O)[C@@H](O)[C@@H]1O` [compound 37], in data set [1], the “β-Gal Inhibition (%)” value was 14 ^d %. In data set [2], the “GCase Inhibition (%)” value is recorded as 100 ^d % and the IC50 is 29000 ± 2000 nM.

Take `CC[C@]1(O)CNC[C@@H](O)[C@H]1O` [compound 13, (3S, 4R, 5R)-3-Ethyl-3,4,5-Trihydroxypiperidine]: the inhibition at 1000 µM in data set [5] stood at 3%; in data set [6], 30%.

As for `O[C@@H]1[C@H](O)[C@H](O)CN[C@H]1C[C@H](O)c1ccccc1` [compound 6], in data set [4], the “increase of β-Gal activity in GM1 gangliosidosis patient fibroblasts” value was 2–6 fold.

Regarding `O[C@@H]1CNC[C@@](O)(C#Cc2ccccc2)[C@@H]1O` [compound 32, (3S, 4R, 5R)-3,4,5-Trihydroxy-3-(Phenylethynyl)-Piperidine], the “β-Gal Inhibition (%)” value in data set [5] is recorded as 16%. The same compound returned an inhibition at 1000 µM in data set [6] of 25%.

As for `CCCCCCCCC[C@H]1NC[C@@H](O)[C@@H](O)[C@H]1CO` [compound 5], the IC50 in data set [3] was 0.4 nM. For the same compound, the “rescue of mutant β-Gal activity in fibroblasts from GM1-gangliosidosis patients” value in data set [4] was “able to rescue mutant β-Gal activity”.

In the case of `CCCCCCCCCN1C[C@H](O)[C@@H](O)[C@@H](O)[C@H]1CO` [compound 2, N-nonyl-DGJ], in data set [4], the “rescue of intracellular activity of mutant β-Gal in GM1-gangliosidosis patient fibroblasts” value is “able to rescue the intracellular activity of mutant β-Gal”.

For `OC[C@H]1CNC[C@@H](O)[C@H]1O` [compound 3, 4-epi-isofagomine], the IC50 in data set [3] is 1000 nM.

Consider `CCCCCCCCCCCC[C@H]1NC[C@@H](O)[C@@H](O)[C@@H]1O` [compound 38], for which, in data set [1], the “β-Gal Inhibition (%)” value was 5 ^d %. Besides, in data set [2], the “GCase Inhibition (%)” value was 100 ^d % and the IC50 is 1500 ± 100 nM.
